ChEMBL document CHEMBL4507286 (2021)

Key:
[1] = system: Tyrosine-protein kinase ABL1 (Homo sapiens), P00519 [M351T]
[2] = biological target: Bone morphogenetic protein receptor type-1A (Homo sapiens) (UniProt P36894)
[3] = biological target: Bone morphogenetic protein receptor type-1B (Homo sapiens) (UniProt O00238)
[4] = biological target: Protein-tyrosine kinase 6 (Homo sapiens) (UniProt Q13882)
[5] = biological target: Cyclin-dependent kinase 5 (Homo sapiens, UniProt Q00535)
[6] = biological target: Serine/threonine-protein kinase Chk2 (Homo sapiens) (UniProt O96017)
[7] = biological target: Megakaryocyte-associated tyrosine-protein kinase (Homo sapiens) (UniProt P42679)
[8] = biological target: Mitogen-activated protein kinase kinase kinase 12 (Homo sapiens) (UniProt Q12852)
[9] = biological target: Dual specificity tyrosine-phosphorylation-regulated kinase 2 (Homo sapiens) (UniProt Q92630)
Sequence of Dual specificity tyrosine-phosphorylation-regulated kinase 2 (Homo sapiens) (Q92630 whole entry): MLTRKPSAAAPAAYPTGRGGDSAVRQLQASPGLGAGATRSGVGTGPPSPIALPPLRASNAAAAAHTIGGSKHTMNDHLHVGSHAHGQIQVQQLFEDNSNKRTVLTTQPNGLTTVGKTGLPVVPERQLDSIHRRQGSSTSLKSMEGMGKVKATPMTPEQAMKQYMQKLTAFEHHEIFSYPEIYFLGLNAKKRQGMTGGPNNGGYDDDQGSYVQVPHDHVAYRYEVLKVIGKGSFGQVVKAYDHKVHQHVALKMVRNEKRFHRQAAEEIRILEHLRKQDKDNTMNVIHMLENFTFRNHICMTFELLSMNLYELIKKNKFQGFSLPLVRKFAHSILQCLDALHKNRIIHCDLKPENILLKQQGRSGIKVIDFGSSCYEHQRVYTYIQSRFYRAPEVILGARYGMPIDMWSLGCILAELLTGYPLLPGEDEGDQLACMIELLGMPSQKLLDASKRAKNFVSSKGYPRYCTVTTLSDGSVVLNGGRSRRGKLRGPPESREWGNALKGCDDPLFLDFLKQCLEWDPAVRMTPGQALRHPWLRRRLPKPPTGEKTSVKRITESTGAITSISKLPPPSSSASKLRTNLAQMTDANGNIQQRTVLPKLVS

[10] = biological target: Ephrin type-B receptor 6 (Homo sapiens) (UniProt O15197)
Sequence of Ephrin type-B receptor 6 (Homo sapiens) (O15197 whole entry): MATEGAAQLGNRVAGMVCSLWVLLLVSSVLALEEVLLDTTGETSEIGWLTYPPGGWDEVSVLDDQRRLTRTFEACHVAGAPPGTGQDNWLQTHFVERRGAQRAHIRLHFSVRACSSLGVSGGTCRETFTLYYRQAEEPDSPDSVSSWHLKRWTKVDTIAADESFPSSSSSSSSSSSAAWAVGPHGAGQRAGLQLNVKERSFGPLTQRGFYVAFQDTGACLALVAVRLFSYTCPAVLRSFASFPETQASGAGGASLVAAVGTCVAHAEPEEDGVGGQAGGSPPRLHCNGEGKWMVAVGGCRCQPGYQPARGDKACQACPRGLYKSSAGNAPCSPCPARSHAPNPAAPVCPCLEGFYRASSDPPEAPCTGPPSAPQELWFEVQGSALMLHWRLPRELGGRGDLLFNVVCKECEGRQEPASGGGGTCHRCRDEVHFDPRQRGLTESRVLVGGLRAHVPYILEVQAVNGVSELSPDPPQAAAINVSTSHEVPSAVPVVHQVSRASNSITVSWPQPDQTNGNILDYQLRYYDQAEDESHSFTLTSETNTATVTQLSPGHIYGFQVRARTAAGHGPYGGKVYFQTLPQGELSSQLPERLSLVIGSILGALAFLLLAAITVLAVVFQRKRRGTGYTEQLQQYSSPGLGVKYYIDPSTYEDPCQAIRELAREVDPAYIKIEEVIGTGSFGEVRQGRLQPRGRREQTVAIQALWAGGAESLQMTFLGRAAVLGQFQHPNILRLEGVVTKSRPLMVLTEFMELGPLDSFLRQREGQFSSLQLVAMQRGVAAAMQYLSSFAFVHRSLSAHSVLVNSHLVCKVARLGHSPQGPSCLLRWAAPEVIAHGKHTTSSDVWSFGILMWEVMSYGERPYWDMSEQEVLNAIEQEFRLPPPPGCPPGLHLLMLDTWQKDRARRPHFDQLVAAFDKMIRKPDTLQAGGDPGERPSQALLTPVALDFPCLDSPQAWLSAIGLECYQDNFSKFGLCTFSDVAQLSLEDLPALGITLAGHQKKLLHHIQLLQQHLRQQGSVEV

[11] = biological target: Mitogen-activated protein kinase 1 (Homo sapiens, UniProt P28482)
[12] = biological target: Fibroblast growth factor receptor 1 (Homo sapiens) (UniProt P11362)
[13] = biological target: Tyrosine-protein kinase Fyn (Homo sapiens) (UniProt P06241)
[14] = biological target: Rhodopsin kinase GRK1 (Homo sapiens) (UniProt Q15835)
[15] = biological target: Glycogen synthase kinase-3 beta (Homo sapiens, UniProt P49841)
[16] = biological target: Homeodomain-interacting protein kinase 2 (Homo sapiens) (UniProt Q9H2X6)
[17] = biological target: Hormonally up-regulated neu tumor-associated kinase (Homo sapiens) (UniProt P57058)
Sequence of Hormonally up-regulated neu tumor-associated kinase (Homo sapiens) (P57058 whole entry): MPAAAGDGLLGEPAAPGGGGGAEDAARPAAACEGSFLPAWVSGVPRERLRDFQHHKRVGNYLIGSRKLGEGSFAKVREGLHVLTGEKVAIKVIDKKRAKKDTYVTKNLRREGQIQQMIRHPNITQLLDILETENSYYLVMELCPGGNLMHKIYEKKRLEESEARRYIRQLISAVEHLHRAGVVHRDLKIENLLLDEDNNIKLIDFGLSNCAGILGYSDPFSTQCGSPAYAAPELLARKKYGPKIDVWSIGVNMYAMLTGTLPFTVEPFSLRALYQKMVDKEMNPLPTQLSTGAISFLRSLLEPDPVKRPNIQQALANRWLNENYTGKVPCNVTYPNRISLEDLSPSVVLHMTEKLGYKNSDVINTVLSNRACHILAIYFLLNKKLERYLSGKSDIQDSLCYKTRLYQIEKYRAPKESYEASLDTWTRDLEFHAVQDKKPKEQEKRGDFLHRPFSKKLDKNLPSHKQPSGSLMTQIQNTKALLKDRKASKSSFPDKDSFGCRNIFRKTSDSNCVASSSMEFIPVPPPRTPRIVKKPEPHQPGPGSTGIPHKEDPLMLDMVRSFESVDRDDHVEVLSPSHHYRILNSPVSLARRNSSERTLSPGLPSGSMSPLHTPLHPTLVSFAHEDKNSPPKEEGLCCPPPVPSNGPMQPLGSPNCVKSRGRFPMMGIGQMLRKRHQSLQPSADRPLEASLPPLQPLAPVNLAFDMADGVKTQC

[18] = biological target: Serine/threonine-protein kinase ICK (Homo sapiens) (UniProt Q9UPZ9)
Sequence of Serine/threonine-protein kinase ICK (Homo sapiens) (Q9UPZ9 whole entry): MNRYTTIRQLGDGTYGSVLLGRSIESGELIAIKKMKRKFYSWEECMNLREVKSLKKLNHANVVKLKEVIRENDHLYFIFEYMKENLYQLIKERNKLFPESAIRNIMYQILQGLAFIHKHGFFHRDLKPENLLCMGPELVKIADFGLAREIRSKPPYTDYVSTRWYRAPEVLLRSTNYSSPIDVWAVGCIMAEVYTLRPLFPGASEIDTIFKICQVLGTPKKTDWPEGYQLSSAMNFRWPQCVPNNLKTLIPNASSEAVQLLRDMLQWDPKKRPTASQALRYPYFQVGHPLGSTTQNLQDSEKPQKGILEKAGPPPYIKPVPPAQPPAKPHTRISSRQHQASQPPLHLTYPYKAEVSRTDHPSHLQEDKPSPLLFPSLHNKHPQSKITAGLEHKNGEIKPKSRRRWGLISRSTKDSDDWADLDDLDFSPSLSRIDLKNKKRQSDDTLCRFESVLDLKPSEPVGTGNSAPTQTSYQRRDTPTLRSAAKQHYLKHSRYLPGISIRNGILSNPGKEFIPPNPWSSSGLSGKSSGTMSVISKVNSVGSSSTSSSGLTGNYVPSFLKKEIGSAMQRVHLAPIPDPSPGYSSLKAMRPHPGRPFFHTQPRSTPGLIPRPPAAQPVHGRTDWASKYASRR

[19] = biological target: Serine/threonine-protein kinase 10 (Homo sapiens) (UniProt O94804)
[20] = biological target: Mitogen-activated protein kinase kinase kinase 2 (Homo sapiens) (UniProt Q9Y2U5)
[21] = biological target: Mitogen-activated protein kinase kinase kinase kinase 3 (Homo sapiens) (UniProt Q8IVH8)
[22] = biological target: Misshapen-like kinase 1 (Homo sapiens) (UniProt Q8N4C8)
[23] = biological target: Serine/threonine-protein kinase 3 (Homo sapiens) (UniProt Q13188)
[24] = biological target: Muscle, skeletal receptor tyrosine-protein kinase (Homo sapiens) (UniProt O15146)
Sequence of Muscle, skeletal receptor tyrosine-protein kinase (Homo sapiens) (O15146 whole entry): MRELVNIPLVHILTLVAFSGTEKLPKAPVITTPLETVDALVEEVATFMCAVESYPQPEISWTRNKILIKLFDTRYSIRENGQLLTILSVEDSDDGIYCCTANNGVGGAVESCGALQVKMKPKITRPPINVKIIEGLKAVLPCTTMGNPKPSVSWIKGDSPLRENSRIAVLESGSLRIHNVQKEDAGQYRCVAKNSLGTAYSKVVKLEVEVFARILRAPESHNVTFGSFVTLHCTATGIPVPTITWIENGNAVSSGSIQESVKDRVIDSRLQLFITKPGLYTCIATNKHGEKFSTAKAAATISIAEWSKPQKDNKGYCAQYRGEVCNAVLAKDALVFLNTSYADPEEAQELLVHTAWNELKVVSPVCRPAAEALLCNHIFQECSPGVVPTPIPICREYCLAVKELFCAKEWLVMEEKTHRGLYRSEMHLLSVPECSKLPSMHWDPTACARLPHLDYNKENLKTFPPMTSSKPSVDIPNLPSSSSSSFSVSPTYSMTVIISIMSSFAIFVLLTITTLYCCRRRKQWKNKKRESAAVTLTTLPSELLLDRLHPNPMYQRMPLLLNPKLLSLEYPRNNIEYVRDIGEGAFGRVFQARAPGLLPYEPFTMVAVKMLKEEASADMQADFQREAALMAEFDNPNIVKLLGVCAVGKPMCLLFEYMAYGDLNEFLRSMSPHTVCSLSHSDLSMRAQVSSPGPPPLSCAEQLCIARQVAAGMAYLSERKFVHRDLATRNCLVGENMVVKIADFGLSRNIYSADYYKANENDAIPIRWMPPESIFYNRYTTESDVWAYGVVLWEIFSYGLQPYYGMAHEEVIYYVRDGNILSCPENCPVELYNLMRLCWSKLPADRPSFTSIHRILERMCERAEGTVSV

[25] = biological target: Serine/threonine-protein kinase Nek11 (Homo sapiens) (UniProt Q8NG66)
[26] = biological target: Mitogen-activated protein kinase 14 (Homo sapiens) (UniProt Q16539)
[27] = biological target: Calcium-dependent protein kinase 1 (Plasmodium falciparum) (UniProt P62344)
[28] = biological target: Phosphatidylinositol 3-kinase C2 domain-containing subunit gamma (Homo sapiens) (UniProt O75747)
[29] = biological target: Phosphatidylinositol 4-phosphate 5-kinase type-1 alpha (Homo sapiens) (UniProt Q99755)
[30] = biological target: Phosphatidylinositol 5-phosphate 4-kinase type-2 gamma (Homo sapiens) (UniProt Q8TBX8)
Sequence of Phosphatidylinositol 5-phosphate 4-kinase type-2 gamma (Homo sapiens) (Q8TBX8 whole entry): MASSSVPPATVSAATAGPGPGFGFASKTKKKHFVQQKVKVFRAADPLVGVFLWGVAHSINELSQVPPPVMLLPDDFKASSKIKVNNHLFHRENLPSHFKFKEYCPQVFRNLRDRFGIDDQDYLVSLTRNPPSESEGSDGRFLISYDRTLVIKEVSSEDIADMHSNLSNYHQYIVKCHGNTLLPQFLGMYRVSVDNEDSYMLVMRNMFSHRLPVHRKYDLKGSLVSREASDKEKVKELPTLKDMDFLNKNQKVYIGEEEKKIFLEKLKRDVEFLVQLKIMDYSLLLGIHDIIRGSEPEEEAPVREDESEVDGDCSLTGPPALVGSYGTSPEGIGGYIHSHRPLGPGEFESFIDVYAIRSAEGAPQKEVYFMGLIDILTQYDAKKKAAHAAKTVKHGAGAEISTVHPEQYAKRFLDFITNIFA

[31] = biological target: Serine/threonine-protein kinase PLK4 (Homo sapiens) (UniProt O00444)
[32] = biological target: Protein kinase C delta type (Homo sapiens) (UniProt Q05655)
[33] = biological target: Protein-tyrosine kinase 2-beta (Homo sapiens) (UniProt Q14289)
[34] = biological target: Rho-associated protein kinase 2 (Homo sapiens) (UniProt O75116)
[35] = biological target: Ribosomal protein S6 kinase alpha-5 (Homo sapiens) (UniProt O75582)
[36] = biological target: Serine/threonine-protein kinase TNNI3K (Homo sapiens) (UniProt Q59H18)
[37] = biological target: NT-3 growth factor receptor (Homo sapiens) (UniProt Q16288)
[38] = biological target: Transient receptor potential cation channel subfamily M member 6 (Homo sapiens) (UniProt Q9BX84)
[39] = biological target: Serine/threonine-protein kinase ULK1 (Homo sapiens) (UniProt O75385)
[40] = biological target: Serine/threonine-protein kinase WNK2 (Homo sapiens) (UniProt Q9Y3S1)
[41] = biological target: Mitogen-activated protein kinase kinase kinase 19 (Homo sapiens) (UniProt Q56UN5)
[42] = biological target: Mu-type opioid receptor (Homo sapiens) (UniProt P35372); details: Compound concentration 10.0 uM
[43] = biological target: Alpha-1B adrenergic receptor (Homo sapiens) (UniProt P35368); details: Compound concentration 10.0 uM
[44] = biological target: Alpha-2B adrenergic receptor (Homo sapiens) (UniProt P18089); details: Compound concentration 10.0 uM
Sequence of Alpha-2B adrenergic receptor (Homo sapiens) (P18089 whole entry): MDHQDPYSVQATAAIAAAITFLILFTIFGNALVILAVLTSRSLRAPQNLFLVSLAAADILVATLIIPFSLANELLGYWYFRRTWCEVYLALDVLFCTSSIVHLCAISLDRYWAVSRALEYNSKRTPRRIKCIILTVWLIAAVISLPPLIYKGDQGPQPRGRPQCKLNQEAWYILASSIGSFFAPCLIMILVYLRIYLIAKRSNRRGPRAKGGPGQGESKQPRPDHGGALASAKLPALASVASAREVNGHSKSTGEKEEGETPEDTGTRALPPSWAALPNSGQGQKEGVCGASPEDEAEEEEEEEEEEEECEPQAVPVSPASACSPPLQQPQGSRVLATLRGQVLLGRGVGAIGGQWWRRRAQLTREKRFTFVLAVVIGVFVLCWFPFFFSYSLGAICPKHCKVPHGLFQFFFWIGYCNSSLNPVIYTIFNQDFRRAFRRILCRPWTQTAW

[45] = biological target: Muscarinic acetylcholine receptor M5 (Homo sapiens) (UniProt P08912); details: Compound concentration 10.0 uM
[46] = Compound concentration 1000.0 nM
[47] = Compound concentration 100.0 nM

Sequence of Cyclin-dependent kinase 5 (Q00535 whole entry, looked up): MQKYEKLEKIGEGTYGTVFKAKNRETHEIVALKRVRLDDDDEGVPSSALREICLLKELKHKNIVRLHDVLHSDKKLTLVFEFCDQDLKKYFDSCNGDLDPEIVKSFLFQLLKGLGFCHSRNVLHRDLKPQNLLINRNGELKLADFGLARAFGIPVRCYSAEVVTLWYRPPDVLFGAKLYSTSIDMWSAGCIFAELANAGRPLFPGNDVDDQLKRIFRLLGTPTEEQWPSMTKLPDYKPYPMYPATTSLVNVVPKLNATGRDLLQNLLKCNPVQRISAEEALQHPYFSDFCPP

## C[C@H](NC(=O)Nc1cc2[nH]ncc2c(CO)n1)c1ccccn1 [ERKi-NC]
[1]; [46]
  residual activity: 89.8%
[2]; [46]
  residual activity: 74.6%
[3]; [46]
  residual activity: 100%
[4]; [46]
  residual activity: 100%
[5]; [46]
  residual activity: 100%
[6]; [46]
  residual activity: 95.9%
[7]; [46]
  residual activity: 100%
[8]; [46]
  residual activity: 67.9%
[9]; [46]
  residual activity: 100%
[10]; [46]
  residual activity: 100%
[11]; [46]
  residual activity: 50%
[12]; [46]
  residual activity: 78%
[13]; [46]
  residual activity: 70.9%
[14]; [46]
  residual activity: 59.5%
[15]; [46]
  residual activity: 100%
[16]; [46]
  residual activity: 83.9%
[17]; [46]
  residual activity: 100%
[18]; [46]
  residual activity: 71.4%
[19]; [46]
  residual activity: 95.5%
[20]; [46]
  residual activity: 98.4%
[21]; [46]
  residual activity: 100%
[22]; [46]
  residual activity: 77.7%
[23]; [46]
  residual activity: 82.2%
[24]; [46]
  residual activity: 100%
[25]; [46]
  residual activity: 57.7%
[26]; [46]
  residual activity: 100%
[27]; [46]
  residual activity: 77.4%
[28]; [46]
  residual activity: 93.1%
[29]; [46]
  residual activity: 100%
[30]; [46]
  residual activity: 100%
[31]; [46]
  residual activity: 100%
[32]; [46]
  residual activity: 63.8%
[33]; [46]
  residual activity: 100%
[34]; [46]
  residual activity: 88.4%
[35]; [46]
  residual activity: 100%
[36]; [46]
  residual activity: 100%
[37]; [46]
  residual activity: 85.4%
[38]; [46]
  residual activity: 92.7%
[39]; [46]
  residual activity: 100%
[40]; [46]
  residual activity: 90.7%
[41]; [46]
  residual activity: 100%
[42]
  inhibition: -6.59%
[43]
  inhibition: 1.42%
[44]
  inhibition: -0.465%
[45]
  inhibition: 7.22%

## C[C@@H](NC(=O)Nc1cc2[nH]ncc2c(CO)n1)c1ccccc1 [ERKi]
[1]; [47]
  residual activity: 100%
[2]; [47]
  residual activity: 100%
[3]; [47]
  residual activity: 69.4%
[4]; [47]
  residual activity: 86.6%
[5]; [47]
  residual activity: 100%
[6]; [47]
  residual activity: 100%
[7]; [47]
  residual activity: 72.1%
[8]; [47]
  residual activity: 97.4%
[9]; [47]
  residual activity: 59.3%
[10]; [47]
  residual activity: 75.5%
[11]; [47]
  residual activity: 1%
[12]; [47]
  residual activity: 94.1%
[13]; [47]
  residual activity: 95.2%
[14]; [47]
  residual activity: 78.3%
[15]; [47]
  residual activity: 100%
[16]; [47]
  residual activity: 85.6%
[17]; [47]
  residual activity: 100%
[18]; [47]
  residual activity: 80.9%
[19]; [47]
  residual activity: 84.8%
[20]; [47]
  residual activity: 87.3%
[21]; [47]
  residual activity: 84.5%
[22]; [47]
  residual activity: 90.1%
[23]; [47]
  residual activity: 90.2%
[24]; [47]
  residual activity: 86.8%
[25]; [47]
  residual activity: 83.4%
[26]; [47]
  residual activity: 100%
[27]; [47]
  residual activity: 82.9%
[28]; [47]
  residual activity: 68.3%
[29]; [47]
  residual activity: 84.5%
[30]; [47]
  residual activity: 95%
[31]; [47]
  residual activity: 71.6%
[32]; [47]
  residual activity: 94.9%
[33]; [47]
  residual activity: 75%
[34]; [47]
  residual activity: 44.7%
[35]; [47]
  residual activity: 82.7%
[36]; [47]
  residual activity: 94.6%
[37]; [47]
  residual activity: 76.7%
[38]; [47]
  residual activity: 96.4%
[39]; [47]
  residual activity: 48.6%
[40]; [47]
  residual activity: 100%
[41]; [47]
  residual activity: 86.2%
[42]
  inhibition: 6.82%
[43]
  inhibition: -2.72%
[44]
  inhibition: -1.5%
[45]
  inhibition: 35.8%
